According to ChEMBL document CHEMBL1201862, “PubChem BioAssay data set” (2004):
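Step 1: Grow cells in 96-well plates. Step 2: Expose to compound for 48 hours at 5 concentrations. Step 3: Interpolate endpoints linearly; if unreached, use highest concentration. GI50 = concentration required for 50% inhibition of growth.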 The source made the active and inactive calls. Cut-off read from the data, not from the text of the source: active = GI50 up to about 1.1 µM and inactive = higher.

Assays:
Test in all cases: NCI anticancer screen, dose series, 48 h
OVCAR-5 = test system: OVCAR-5
NCI-H522 = test system: NCI-H522
RPMI-8226 = test system: RPMI-8226
OVCAR-8 = test system: OVCAR-8
SN12C = test system: SN12C
U-251 = test system: U-251
HCT-15 = test system: HCT-15
Malme-3M = test system: Malme-3M
KM12 = test system: KM12
CAKI-1 = test system: CAKI-1
MDA-MB-435 = test system: MDA-MB-435
NCI-H23 = test system: NCI-H23
UACC-257 = test system: UACC-257
K562 = test system: K562
LOX IMVI = test system: LOX IMVI
MDA-MB-231 = test system: MDA-MB-231
SK-OV-3 = test system: SK-OV-3
COLO 205 = test system: COLO 205
CCRF-CEM = test system: CCRF-CEM

SMILES | GI50 (OVCAR-5) | GI50 (NCI-H522) | GI50 (RPMI-8226) | GI50 (OVCAR-8) | GI50 (SN12C) | GI50 (U-251) | GI50 (HCT-15) [µM] | GI50 (Malme-3M) | GI50 (KM12) | GI50 (CAKI-1) | GI50 (MDA-MB-435) | GI50 (NCI-H23) | GI50 (UACC-257) | GI50 (K562) | GI50 (LOX IMVI) | GI50 (MDA-MB-231) | GI50 (SK-OV-3) | GI50 (COLO 205) | GI50 (CCRF-CEM)
COC(C/C(=C/CO[Si](C(C)C)(C(C)C)C(C)C)C(=O)Nc1ccccc1I)OC | 24 µM (inactive) | 1.53 µM (inactive) | 6.15 µM (inactive) | 33 µM (inactive) | 26.9 µM (inactive) | 28 µM (inactive) | 19.1 | 0.0676 µM (active) | 31 µM (inactive) | 22.2 µM (inactive) | 26.7 µM (inactive) | 32.9 µM (inactive) | 32.6 µM (inactive) | 14.9 µM (inactive) | 16 µM (inactive) | 12.5 µM (inactive) | 28.2 µM (inactive) | 9.75 µM (inactive) | 9.68 µM (inactive)
Nc1ccc(S(=O)(=O)c2ccc(/N=[N+](\[O-])c3ccc(S(=O)(=O)c4ccc(N)cc4)cc3)cc2)cc1 | > 100 µM (inactive) | 17.9 µM (inactive) | > 100 µM (inactive) | 41.2 µM (inactive) | > 68.9 µM (inactive) | 27.7 µM (inactive) | > 100 | > 56.4 µM (inactive) | > 100 µM (inactive) | 86.9 µM (inactive) | > 100 µM (inactive) | 34.8 µM (inactive) | > 91.8 µM (inactive) | > 100 µM (inactive) | > 60.7 µM (inactive) | 35.8 µM (inactive) | 24.9 µM (inactive) | > 100 µM (inactive) | > 100 µM (inactive)
O=C1Nc2ccccc2/C1=N/N=C1NCCCCN1 | > 100 µM (inactive) | > 100 µM (inactive) | > 100 µM (inactive) | > 100 µM (inactive) | > 100 µM (inactive) | > 100 µM (inactive) | > 100 | > 100 µM (inactive) | > 100 µM (inactive) | > 100 µM (inactive) | > 100 µM (inactive) | > 100 µM (inactive) | > 100 µM (inactive) | > 100 µM (inactive) | > 100 µM (inactive) | > 100 µM (inactive) | > 100 µM (inactive) | > 100 µM (inactive) | > 100 µM (inactive)
Cc1ccnc(NS(=O)(=O)c2ccc(NC(=O)c3ccc4nc5ccccc5c(Nc5ccc(S(=O)(=O)Nc6nccc(C)n6)cc5)c4c3)cc2)n1 | > 100 µM (inactive) | 39.4 µM (inactive) | 57.8 µM (inactive) | > 100 µM (inactive) | 60.3 µM (inactive) | 19.8 µM (inactive) | > 100 | 78.5 µM (inactive) | 29 µM (inactive) | > 100 µM (inactive) | 66.1 µM (inactive) | > 100 µM (inactive) | > 100 µM (inactive) | 41.4 µM (inactive) | 45.3 µM (inactive) | 40.7 µM (inactive) | > 100 µM (inactive) | > 100 µM (inactive) | 42.3 µM (inactive)
Nc1ccc(C2SCC(=O)N2NS(=O)(=O)c2cccc(C(=O)O)c2)cc1 (stereo not drawn) | > 100 µM (inactive) | > 100 µM (inactive) | 10.4 µM (inactive) | > 100 µM (inactive) | > 100 µM (inactive) | > 100 µM (inactive) | > 100 | 18.1 µM (inactive) | > 100 µM (inactive) | > 100 µM (inactive) | > 100 µM (inactive) | > 100 µM (inactive) | > 100 µM (inactive) | > 100 µM (inactive) | > 100 µM (inactive) | > 100 µM (inactive) | > 100 µM (inactive) | > 100 µM (inactive) | 63.8 µM (inactive)
CCN(CC)CCNC(=O)c1ccc(I)cc1 | > 100 µM (inactive) | > 100 µM (inactive) | > 100 µM (inactive) | > 100 µM (inactive) | > 100 µM (inactive) | > 100 µM (inactive) | > 100 | > 100 µM (inactive) | > 100 µM (inactive) | 60.4 µM (inactive) | > 100 µM (inactive) | > 100 µM (inactive) | > 100 µM (inactive) | > 100 µM (inactive) | > 100 µM (inactive) | > 100 µM (inactive) | > 100 µM (inactive) | > 100 µM (inactive) | 89.5 µM (inactive)
O=C1c2cc3c(cc2NC(c2ccccc2F)C1O)OCO3 (stereo not drawn) | 22.1 µM (inactive) | 10.5 µM (inactive) | 30.5 µM (inactive) | 28.2 µM (inactive) | 22.2 µM (inactive) | 14.9 µM (inactive) | 5.45 | 9.86 µM (inactive) | 6.65 µM (inactive) | 25.6 µM (inactive) | 3.08 µM (inactive) | 22.6 µM (inactive) | 22.9 µM (inactive) | 6.85 µM (inactive) | 17.9 µM (inactive) | 20.2 µM (inactive) | 17.7 µM (inactive) | 5.3 µM (inactive) | 14 µM (inactive)
